Counter-ions that a name gives are not always drawn. Like-named read-outs stand apart in the source and are kept apart here.
Columns and labels:
[1] = Apparent solubility/extended kinetic solubility by UHPLC; format: physicochemical; details: aqueous buffer, thermodynamic from solid, phosphate buffer, 37° C.
Procedure: Biological Assay—Determination of Apparent Solubility/Extended Kinetic Solubility by UHPLC
Test sample preparation: About 0.5 mg of the test sample was weighed and transferred in duplicate in 1 mL glass inserts of 96 well plates. 5 μL of DMSO and 1 ml of phosphate buffer were added. Allowed for equilibrium in an orbital shaker at 37° C. for 24 hrs. Later, allowed it cool to room temperature and centrifuged the 96 well plate (at 240×10 RPM for 20 min) and supernatant material was taken into collection plate, covered it with the heat resistant aluminum sheet or supernatant material was directly taken into HPLC sample vial.
Injected diluent as blank and linearity solutions in duplicate. Recorded the chromatograms and plotted the calibration curve, concentration (X-axis) versus Area (y-axis). The correlation coefficient for calibration curve should be not less than 0.95. If above criteria passes, then injected the test samples and recorded the chromatograms. In case saturated peaks are observed, then diluted the test sample with diluent as appropriate.
Calculated the slope and intercept of the calibration curve. From the standard curve, determined the solubility of the sample in μM (micromolar).

[2] = Plasma and tumor compound concentrations in CT26 tumor-bearing mice (LC-MS/MS); format: in vivo, BALB/c mice; details: 0.375 mg/kg single i.v.; for concentration at 3.5 h: 3.5 h (Table 4); for concentration at 8 h: 8 h (Table 4); for concentration at 12 h: 12 h (Table 4)
Procedure: (§1) Pharmacokinetic and Pharmacodynamic Profiling and Estimation of Immune Cell Infiltration in Tumors Following Treatment with Compounds 2, 6, 8, 12 and 14
(§2) Serum and tumor cytokine levels and corresponding compound concentrations in mouse plasma were determined following single-dose intravenous administration in CT26 (murine colorectal carcinoma) tumor-bearing mice. Briefly, naïve BALB/c mice in the age group of 6-8 weeks were inoculated with 0.1 million CT-26 cells/animal in phosphate buffered saline (PBS), subcutaneously. […] Blood and tumor samples were harvested at various time points up to 24 h post-dose. Tumor samples were homogenized and prepared for cytokine estimation (ELISA) and compound concentration were determined by LC-MS/MS. Serum aliquots and tumor samples were snap-frozen and stored at −80° C. till further analysis. Serum and tumor samples were evaluated for Interferon beta (IFNβ), interleukin-6 (IL-6) and tumor necrosis factor alpha (TNFα) by enzyme linked immunosorbent assay (ELISA) using kits from R & D systems (Quantikine mouse IL-6 and TNFα kits) and PBL biosciences (Verikine mouse IFNβ kit).
Bioanalysis of plasma and tumor samples: Plasma and tumor concentrations of test compounds were determined by LC-MS/MS method. Tumor samples were homogenized utilizing a bead-based homogenizer. Plasma samples and tumor homogenates were extracted using protein precipitation method with organic solution containing respective internal standards. Plasma and tumor concentrations were determined against respective calibration curve. Table 3 indicates the concentration of Compound 2 in plasma and tumor at different administered doses. Table 4 indicates the concentration of Compounds 6, 8, 12, and 14 in plasma and tumor at different administered doses. Table 5 indicates cytokine levels for Compound 2 in serum and tumor at different doses. Table 6 indicates cytokine levels for Compounds 6, 8, 12 and 14 in serum and tumor at 0.375 mpk.

[3] = tested on: Interferon beta (IFNβ), interleukin-6 (IL-6) and tumor necrosis factor alpha (TNFα); assay: Serum and tumor cytokine levels in CT26 tumor-bearing mice (ELISA); format: in vivo, BALB/c mice; details: 0.375 mg/kg single i.v.
Procedure: as §1, §2
Cytokine analysis from mouse serum samples: For IL-6 and TNFα estimation, 50 μL of test samples or internal standard or control were applied to wells in duplicates and incubated for 2 h at room temperature, followed by aspiration and washing four times with 400 μL of wash buffer. 100 μL of mouse IL-6 or TNFα conjugate solution was added and incubated further for 2 h at room temperature and followed later by 4 wash cycles. 100 μL of substrate solution was added to each well with addition of stop solution after 30 min. Optical density was measured at 450 nm averaged and was used for further calculations following subtraction of respective blank controls. Cytokine concentrations were determined by interpolating the optical density of samples into the reference standard curve utilizing four parameter logistic (4-PL) curve-fit. Cytokine concentrations were normalized with their respective dilution factors and represented in pg/mL. For IFNβ estimation, 100 μL test sample or internal standard or controls were applied to the wells in duplicates and incubated for 1 h at room temperature followed by three washes and addition of the anti-mouse IFNβ antibody solution with further 1 h incubation. This was followed by addition of horseradish peroxidase (HRP) solution and three washes, later addition of TMB substrate and reading the optical density at 450 nm. Optical densities were blank-subtracted and interpolated to the reference standard utilizing the four parameter logistic (4-PL) curve-fit. Cytokine concentrations were normalized with their respective dilution factors and represented in pg/mL. Tables 4 and 5 indicate cytokine levels for compounds 2, 6, 8, 12, and 14 in serum and tumor at different administered doses.
Cytokine analysis from tumor samples: Tumor samples were homogenized in a bead-based homogenizer and lysates were prepared with buffer supplemented with 1% Triton X-100 and protease inhibitors. Cytokine levels were estimated by ELISA and expressed as pg/g tumor.

[4] = BALB/c, mouse, plasma, intravenous, read-out: Plasma Conc.
[5] = BALB/c, mouse, tumor, intravenous, read-out: Tumor Conc.

**Q.** For CCn1nc(C)cc1C(=O)Nc1nc2cc(C(N)=O)cc3c2n1C/C=C/Cn1c(NC(=O)c2cc(C)nn2CC)nc2cc(C(=O)N[C@H]4CC[C@H](C(=O)O)CC4)cc(c21)OC[C@@H](N1C2CCC1COC2)CO3 [Compound 14, (1S,4R)-4-((8S,E)-8-(3-oxa-8-azabicyclo[3.2.1]octan-8-yl)-12-carbamoyl-1,15-bis(1-ethyl-3-methyl-1H-pyrazole-5-carboxamido)-8,9,16,19-tetrahydro-7H-6,10-dioxa-2,14,15a,19a-tetraazacyclopentadeca[3,2,1-cd:8,9,10-c′d′]diindene-4-carboxamido)cyclohexane-1-carboxylic acid sodium salt], which solubility at 24 h [1] is on record?
**A.** Its solubility at 24 h is 6.8 mM.

**Q.** What about the “Plasma Conc.” value ([2]; 24 h (Table 4)) of the same compound?
**A.** Its value is “BLQ”.

**Q.** And the concentration at 3.5 h [2, 4]?
**A.** Its concentration at 3.5 h is 450 ± 70 nM.

**Q.** And the concentration at 8 h [2, 4]?
**A.** The concentration at 8 h was 90 ± 10 nM.

**Q.** And the concentration at 12 h [2, 4]?
**A.** The concentration at 12 h was 70 ± 60 nM.

**Q.** And the concentration at 3.5 h [2, 5]?
**A.** The concentration at 3.5 h was 170 ± 20 nM.

**Q.** What about the concentration at 8 h [2, 5] of the same compound?
**A.** The concentration at 8 h was 130 ± 20 nM.

**Q.** What about the concentration at 12 h [2, 5] of the same compound?
**A.** Its concentration at 12 h is 160 ± 60 nM.

**Q.** What about the concentration at 24 h ([2]; BALB/c, mouse, tumor, intravenous, 24 h (Table 4), read-out: Tumor Conc.) of the same compound?
**A.** The concentration at 24 h was 180 ± 60 nM.

**Q.** And the “Serum IFNβ” value ([3]; 3.5 h (Table 6))?
**A.** The value was 768 ± 330.8 pg/mL.

**Q.** What about the “Tumor IFNβ” value ([3]; 3.5 h (Table 6)) of the same compound?
**A.** Its value is 2433 ± 653.8 pg/g tumor.

**Q.** What about the “Serum IFNβ” value ([3]; 8 h (Table 6)) of the same compound?
**A.** Its value is 415 ± 8.7 pg/mL.

**Q.** And the “Tumor IFNβ” value ([3]; 8 h (Table 6))?
**A.** Its value is 2137 ± 261.8 pg/g tumor.

**Q.** What about the “Serum IFNβ” value ([3]; 12 h (Table 6)) of the same compound?
**A.** Its value is 5 ± 5 pg/mL.

**Q.** What about the “Tumor IFNβ” value ([3]; 12 h (Table 6)) of the same compound?
**A.** Its value is 752 ± 126.6 pg/g tumor.

**Q.** And the “Serum IFNβ” value ([3]; 24 h (Table 6))?
**A.** The value was “BLQ”.

**Q.** What about the “Tumor IFNβ” value ([3]; 24 h (Table 6)) of the same compound?
**A.** Its value is 380 ± 239 pg/g tumor.

Reference: US12479858B2, “Macrocyclic compounds as sting agonists and methods and uses thereof” (Lupin Limited, priority 2019, dated 2025)
